Assay results taken from patent US8008491B2, “Substituted AZA-indoles as inhibitors of poly(ADP-ribose) polymerase (PARP)” (Aventis Pharmaceuticals, Inc., priority 2003, dated 2011).

Legend:
[1] = system: HL-60 (human leukemia) cells; test: Cell-based assay: protection from cell death induced by serum deprivation (Alamar Blue); conditions: median effective concentration preventing cell death, HL-60, 0.1% FCS, 24 hr
Method: HL-60 (human leukemia) cells are grown and maintained using standard procedures in RPMI 1640+Glutamax medium supplemented with 10% fetal calf serum (FCS). For assay, cells are suspended in medium supplemented with 0.1% FCS at 0.5 million cells/mL and seeded into 96 well plates (100 μL/well). After preincubation for 3 hrs, cells are treated with compound for 1 hr, then Alamar Blue (Serotec) is added to the cells. After a further 24 hr incubation, fluorescence is measured (ex 560 nm, em 590 nm). Decrease in fluorescence compared to control cells (10 μM of a potent PARP inhibitor) is a measure of cell death. Increased fluorescence in the presence of test compound indicates protection from cell death induced by serum deprivation. For detection of polyADP-ribosylation, cells are subjected to serum deprivation in the presence and absence of compound. Cells are lysed and proteins are run on an SDS-PAGE gel. PolyADP-ribosylated proteins are detected with antibody to polyADP-ribose (Alexis or Calbiochem).
The results obtained from this study are expressed as EC50 (median effective concentration of the test compound that was effective in preventing the cell death—expressed in micromolar (μM) concentration) for each of the tested compounds and are summarized in Table 4.

Male Fisher 344 rats = test: Stroke model: middle cerebral artery (MCA) occlusion, infarct volume; format: in vivo, rat; conditions: total dose 40 mg/kg i.v. (10 mg/kg bolus plus 5 mg/kg/hr for 6 hrs) 15 min after MCA occlusion; 48 hours post-occlusion
Method: Male Fisher 344 rats are anesthetized. The right carotid artery is isolated and ligated, and the right jugular vein is canulated for compound administration. The middle cerebral artery (MCA) was exposed through a craniotomy, and the MCA and its right branch, the lenticulostriate artery are electrocoagulated. The arteries are cut to avoid recanalization. […] The compounds are given as a 10 mg/kg bolus followed by an infusion of 5 mg/kg/hr for 6 hrs (total dose 40 mg/kg).
48 Hours post-MCA occlusion the rats are sacrificed, and the brains removed and cut into 2-mm coronal sections.
A total dose of 40 mg/kg of 2-(piperazin-1-yl)-1-phenyl-1H-indole-3-carboxaldehyde (Example 3) is given as bolus plus infusion as described above.

Male Sprague-Dawley rats = test: Myocardial ischemia model: coronary artery occlusion and reperfusion, infarct size; format: in vivo, rat; conditions: 20 min occlusion, 60 min reperfusion
Excerpt: Male Sprague-Dawley rats are anesthetized and the chest is opened. A thin silk thread is placed around the left anterior descending coronary artery. The silk is passed through a plastic tube and the chest is closed. After stable hemodynamics, the coronary artery is occluded by applying tension to the thread via the tube. Successful occlusion is confirmed by a decrease in systolic blood pressure and alterations in ECG. Reperfusion is initiated by releasing the tension on the ligature.
For testing efficacy of Example 3 in this animal model, animals are divided into three groups. One group received the compound of Example 3 at 10 mg/kg i.v. 10 min prior to occlusion. A second group received compound of Example 3 at the same dose 5 min prior to reperfusion. The third group served as vehicle control. The period of occlusion is 20 min, followed by reperfusion for 60 min. After sacrifice infarct size is measured by staining of heart tissue slices with triphenyltetrazolium chloride and expressed as a percent (%) of area at risk.
A similar study is carried out with cariporide, a reference standard.

human PARP (PARP1) = human PARP (PARP1) (Homo sapiens, UniProt P09874); test: PARP enzyme assay of Table 3 (radioactive enzyme assay or 'ELISA' enzyme assay); conditions: IC50 (μM), fifty percent inhibitory concentration; recombinant human PARP;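 also: Baculovirus-expressed PARP1 from insect cells, activity read as tritium from labeled NAD in acid-precipitated protein, or as biotin-NAD built into plate-bound histone by absorbance at 450 nm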
Chain of human PARP (PARP1) (P09874 whole entry): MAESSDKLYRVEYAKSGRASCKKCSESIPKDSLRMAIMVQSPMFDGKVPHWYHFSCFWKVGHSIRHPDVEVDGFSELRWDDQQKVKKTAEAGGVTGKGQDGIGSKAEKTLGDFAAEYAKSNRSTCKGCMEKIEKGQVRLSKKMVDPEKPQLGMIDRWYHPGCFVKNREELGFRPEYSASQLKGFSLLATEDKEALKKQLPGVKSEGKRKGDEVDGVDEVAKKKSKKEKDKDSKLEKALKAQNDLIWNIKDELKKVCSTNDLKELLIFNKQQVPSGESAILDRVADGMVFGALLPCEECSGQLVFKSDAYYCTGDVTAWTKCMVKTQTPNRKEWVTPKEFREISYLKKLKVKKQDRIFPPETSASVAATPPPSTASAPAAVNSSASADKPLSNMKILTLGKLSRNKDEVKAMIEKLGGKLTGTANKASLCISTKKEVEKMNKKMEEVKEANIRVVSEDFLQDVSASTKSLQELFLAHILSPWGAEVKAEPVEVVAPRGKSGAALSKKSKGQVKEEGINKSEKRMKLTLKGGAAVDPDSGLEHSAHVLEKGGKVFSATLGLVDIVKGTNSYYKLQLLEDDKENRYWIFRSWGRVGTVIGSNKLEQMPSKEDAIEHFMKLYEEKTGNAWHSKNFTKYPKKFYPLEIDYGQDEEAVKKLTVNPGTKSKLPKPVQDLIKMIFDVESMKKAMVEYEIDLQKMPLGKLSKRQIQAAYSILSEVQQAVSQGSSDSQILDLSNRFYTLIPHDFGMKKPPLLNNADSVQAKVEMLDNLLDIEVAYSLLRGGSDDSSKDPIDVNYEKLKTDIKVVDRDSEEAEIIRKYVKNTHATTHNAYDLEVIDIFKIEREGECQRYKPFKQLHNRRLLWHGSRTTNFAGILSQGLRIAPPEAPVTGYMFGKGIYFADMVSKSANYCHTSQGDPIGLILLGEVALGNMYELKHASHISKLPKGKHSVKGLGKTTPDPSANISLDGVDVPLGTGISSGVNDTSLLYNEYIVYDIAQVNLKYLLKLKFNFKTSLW
Method: The compounds of this invention are then tested with this enzyme preparation using either the radioactive enzyme assay or by the “ELISA” enzyme assay as set forth below.
Incorporation of radioactivity from labeled NAD into acid-precipitated protein is measured. The reaction mixture (volume 100 μL or 50 μL, in a test-tube or 96-well plate) contained 100 μg/mL calf thymus DNA (sonicated), 100 μg/mL histones, 100 mM Tris (pH 8.0), 1.0 mM DTT, 10 mM MgCl2, NAD (200 μm, 0.65 microcurie/mL), and varying amounts of enzyme. The reaction was incubated for 10 min at 37° C. or at room temperature for 60 min. The reaction was stopped and protein precipitated by addition of ice-cold trichloroacetic acid (TCA; 10% or 20% aqueous w/v). After brief storage in ice or at 4° C. for 2 hrs, the reaction mixture is filtered under vacuum through a glass fiber filter (2.5 cm disc, or 96-well filter plate). After washing with TCA and ethanol, the filter is dried and counted for tritium CPM after addition of scintillation fluid.
Incorporation of biotin-NAD into histone coated on plate is measured. A 96-well protein-binding EIA plate is coated with histone and blocked with bovine serum albumin. The reaction mixture (50 μL) contained DNA, buffer, enzyme, (test compound), and 250 μM of NAD and 5 μL of biotin-NAD (Trevigen). After reaction at room temperature the wells are washed and treated with Extravidin (Sigma). After incubation and washing color is developed with the peroxidase substrate TMB (Sigma). The TMB reaction is quenched with 2M sulfurric acid and the absorbance at 450 nm is read.

IC50 (human PARP (PARP1)): 2.5 µM
Compound: O=Cc1c(N2CCNCC2)n(-c2ccccc2)c2ccccc12 [Example 3, 2-(Piperazin-1-yl)-1-phenyl-1H-indole-3-carboxaldehyde]
EC50 [1]: 1900 nM | reduction in infarct volume (Male Fisher 344 rats): 40-50% | infarct size (% of area at risk), effect when given prior to reperfusion (Male Sprague-Dawley rats; 10 mg/kg i.v. 5 min prior to reperfusion (Example 3)): small but significant effect | infarct size (% of area at risk), effect when given prior to ischemia (Male Sprague-Dawley rats; 10 mg/kg i.v. 10 min prior to occlusion (Example 3)): significant protection
